Key:
NOD/Ltj mice = test: Effect on the white blood cells and platelets in NOD mice; type: in vivo; conditions: 15 days
Experimental: Non-obese diabetic (NOD) mice are a large mouse strains, including NOD/Scid, NOD/Ltj mice, etc. The NOD/Ltj mice used in this experiment are mice with an abnormal immune system in which platelets and white blood cells are obviously lower than those in normal mice.
5-Week-old healthy NOD mice, after adaptive feeding for one week, were randomly divided into 4 groups:
Group I was the blank control group, totally 13 mice; and was administered intragastrically with normal saline in the same volume of interleukin daily;
Group II was the positive control group, totally 13 mice, and was administered intragastrically with 10.0 mg/kg of interleukin daily;
Group III was the low-dose icaritin group, totally 13 mice, and was administered intragastrically with 30 mg/kg of icaritin daily;
Group IV was the high-dose icaritin group, totally 13 mice, and was administered intragastrically with 60 mg/kg of icaritin daily.
Each group was administered once a day for consecutively 15 days. The mice were anaesthetized (with 3% pentobarbital sodium, by intraperitoneal injection, at 0.1-0.15 ml per animal). 1 ml of blood wass sampled from abdominal aorta into an anticoagulation tube for routine blood test.

[1] = test system: model of thrombocytopenia induced by cyclophosphamide in mice; test: Thrombocytopenia induced by cyclophosphamide in mice (platelets in peripheral blood); type: in vivo, Balb/C mice; conditions: cyclophosphamide model mice, 3 weeks, x ± s
Experimental: 72 Balb/C mice were selected, weighed, and randomly divided into 6 groups, i.e. the normal group, the model control group, the icariin group (positive control group), and the icaritin administration groups (high-, medium-, and low-dose groups), with 12 mice in each group. […] One week before starting to establish the model, each group was administered with the following therapeutic agents:
The normal group: administered subcutaneously with the same volume of normal saline;
The model control group: administered subcutaneously with the same volume of normal saline;
The icariin group: administered by subcutaneous injection with 2 mg/kg of icariin;
The high-dose icaritin group: administered by subcutaneous injection with 10 mg/kg of the icaritin injection of Example 11;
The medium-dose icaritin group: administered by subcutaneous injection with 5 mg/kg of the icaritin injection of Example 11;
The low-dose icaritin group: administered by subcutaneous injection with 1 mg/kg of the icaritin injection of Example 11.
Each group was administered once a day and fed normally. After consecutive administration for 3 weeks, the mice were anesthetized, and blood was sampled to measure the number of platelets and determine the effect of icaritin on the number of platelets (PLT) in the peripheral blood.

[2] = high dose 60 mg/kg intragastrically daily
[3] = low dose 30 mg/kg intragastrically daily

For `COc1ccc(-c2oc3c(CC=C(C)C)c(O)cc(O)c3c(=O)c2O)cc1` [Icaritin], the Platelets (NOD/Ltj mice; [2]) was 780.2 ± 46.5 ^##$$ 10^9/L, the White blood cells (NOD/Ltj mice; [2]) was 4.225 ± 0.51^##$ 10^9/L and the Platelets (NOD/Ltj mice; [3]) was 730.5 ± 34.6^##$ 10^9/L. For the same compound, the White blood cells (NOD/Ltj mice; [3]) was 3.242 ± 0.45 ^#$ 10^9/L, the PLT ([1]; low dose 1 mg/kg sc (injection of Example 11)) was 633.5 ± 43.2 10^9/L and the PLT ([1]; medium dose 5 mg/kg sc (injection of Example 11)) was 725.9 ± 66.7 10^9/L.

Source: patent US10799521B2, “Use of icaritin in preparing medicament for preventing or treating hematocytopenia” (Lunan Pharmaceutical Group Corporation, priority 2013, dated 2020)
